Values quoted from earlier work in patent US20260232685A1, “TRANSDERMAL PERMEATION ENHANCING COMPOSITION AND APPLICATION THEREOF IN TIMOLOL PREPARATION” (WUHAN CONFORM PHARMACEUTICAL CO., LTD., priority 2019, published 2026).

Details: absorbed by the gastrointestinal tract; J. Pharm. Pharmacol., 1978, 30, 53

Hepatic first-pass effect and metabolism at other sites, share of the total dose: about 34%
Compound: CC(C)(C)NC[C@H](O)COc1nsnc1N1CCOCC1 [timolol]
